Test results from patent US10328080B2, “Therapeutic combination of PI3K inhibitor and a BTK inhibitor” (Acerta Pharma B.V., priority 2013, dated 2019).

Key:
[1] = system: human platelet-mediated thrombosis; test: In vivo human thrombus formation in the VWF HA1 mice model (laser injury); conditions: human platelets preincubated with BTK inhibitor (0.1, 0.5 or 1 μM) 30 min; laser-induced injury in VWF HA1 mice
Protocol: Purified human platelets were preincubated with various concentrations of the BTK inhibitors (0.1 μM, 0.5 μM, or 1 μM) or DMSO and then administered to VWF HA1 mice, followed by laser-induced thrombus formation.
The objective of this study was to evaluate in vivo thrombus formation in the presence of BTK inhibitors.

human platelets, GPVI = test: GPVI platelet aggregation (Convulxin-induced); format: cell-based; conditions: CVX-induced, FIG. 56 and FIG. 57
Protocol: GPVI platelet aggregation was measured for Formula (XVIII) and Formula XX-A (ibrutinib). Blood was obtained from untreated humans, and platelets were purified from […] by centrifugation. Cells were resuspended to a final concentration of […] in buffer containing 145 mmol/L NaCl, 10 mmol/L HEPES, 0.5 mmol/L Na2HPO4, 5 mmol/L KCl, 2 mmol/L MgCl2, 1 mmol/L CaCl2, and 0.1% glucose, at pH 7.4. Stock solutions of […] were prepared on the day of experimentation and added to platelet suspensions 5 minutes (37° C., 1200 rpm) before the induction of aggregation. Aggregation was assessed with a Chronolog Lumi-Aggregometer (model 540 VS; Chronolog, Havertown, Pa.) and permitted to proceed for 6 minutes after the addition of agonist. The results are reported as maximum percent change in light transmittance from baseline with platelet buffer used as a reference.
In FIG. 57, the results of CVX-induced (250 ng/mL) human platelet aggregation results before and 15 min after administration of the BTK inhibitors to 6 healthy individuals are shown.

canine B cell lymphoma = test: Veterinary clinical trial in companion dogs with lymphoma; format: in vivo; conditions: Arm 1 monotherapy, Arm 2 combination
Protocol: Enrollment has completed for Arm 1 and is ongoing for Arm 2.
Intra-subject dose escalation was allowed. Six of the 11 dogs that initiated at 2.5 or 5 mg/kg once daily were escalated and completed the study with dosages of 10 mg/kg twice daily. Among all the dose cohorts, 8 dogs had shrinkage of target lesions >20%; the best tumor responses were between 45-49% reduction in the sum of target lesions in two dogs.

ID8 ovarian cancer = test: ID8 syngeneic orthotropic ovarian cancer murine model; format: in vivo, mice; conditions: 15 mg/kg/BID given orally
Excerpt: Human ovarian cancer models, including the ID8 syngeneic orthotropic ovarian cancer model and other animal models, are described in Fong and Kakar, J. Ovarian Res. 2009, 2, 12; Greenaway et al., Gynecol. Oncol. 2008, 108, 385-94; Urzua et al., Tumour Biol. 2005, 26, 236-44; Janat-Amsbury et al., Anticancer Res. 2006, 26, 3223-28; Janat-Amsbury et al., Anticancer Res. 2006, 26, 2785-89. […] The results of the study are shown in FIG. 42, FIG. 43, FIG. 44, FIG. 45, FIG. 46, FIG. 47, FIG. 48, and FIG. 49.

[2] = system: pancreatic tumor-bearing mice; test: Orthotopic pancreatic cancer model (KPC cells in C57BL/6 mice); format: in vivo; conditions: aggressive orthotopic PDA model, 15 mg/kg oral of each drug
Protocol: Cell line derived from KrasG12D;Trp53R^872H;Pdx1-Cre (KPC) mice were orthotopically implanted into the head of the pancreas after 35 passages. Based on the mice background from where the cell lines were generated, 1×10^6 cells were injected in C57BL/6 mice. Throughout the experiment, animals were provided with food and water ad libitum and subjected to a 12-h dark/light cycle. Animal studies were performed in accordance with the U.S. Public Health Service “Guidelines for the Care and Use of Laboratory Animals” (IACUC). After euthanization, pancreatic tumors were dissected out, weighed and single cell suspensions were prepared for flow cytometry analysis.

[3] = system: KPC derived mouse pancreatic cancer cells; test: KPC derived mouse pancreatic cancer model, tumor infiltrating MDSCs and TAMs; format: in vivo; conditions: 15 mg/kg/BID given orally
Protocol: In this study, KPC derived mouse pancreatic cancer cells (KrasG12D;Trp53R^872H;Pdx1-Cre) were injected into the pancreases.
Single cell suspensions from tumor samples. Mouse tumor tissue was collected and stored in PBS/0.1% soybean trypsin inhibitor prior to enzymatic dissociation. Samples were finely minced with a scissors and mouse tissue was transferred into DMEM containing 1.0 mg/ml collagenase IV (Gibco), 0.1% soybean trypsin inhibitor, and 50 U/ml DNase (Roche) and incubated at 37 C for 30 min. with constant stirring while human tissue was digested in 2.0 mg/ml collagenase IV, 1.0 mg/ml hyluronidase, 0.1% soybean trypsin inhibitor, and 50 U/ml DNase for 45 minutes. Suspensions were filtered through a 100 micron filter and washed with FACS buffer (PBS/0.5% BSA/2.0 mM EDTA) prior to staining. Two million total cells were stained with antibodies as indicated. Intracellular detection of FoxP3 was achieved following permeabilization with BD Perm Buffer III (BD Biosciences) and eBioscience Fix/Perm respectively. Following surface staining, samples were acquired on a BD Fortessa and analyzed using FlowJo (Treestar) software.

SMILES	Effect on human platelet-mediated thrombus formation [1]	Inhibition of GPVI platelet aggregation (human platelets, GPVI)	Complete responses (CR) (canine B cell lymphoma)	Median time on study (all subjects) (canine B cell lymphoma; preliminary) [days]	CD8+ T cells (ID8 ovarian cancer; tumor-bearing mice)	Immunosuppressive tumor associated Tregs (ID8 ovarian cancer; tumor-bearing mice)	Immunosuppressive tumor-associated lymphocytes (ID8 ovarian cancer; tumor-bearing mice)	Immunosuppressive B cells (ID8 ovarian cancer; tumor-bearing mice, total B cells and Bregs)	ID8 ovarian cancer growth (ID8 ovarian cancer; vs vehicle)	Tumor burden [2]	Immature myeloid infiltrate ([2]; flow cytometry)	Number of immunosuppressive Tregs ([2]; flow cytometry)	Number of tumor associated macrophages ([2]; flow cytometry)	Tumor burden [3]
C=CC(=O)Nc1cccc(Nc2nc(Nc3ccc(OCCOC)cc3)ncc2F)c1 [Formula XXVII, N-(3-((5-fluoro-2-((4-(2-methoxyethoxy)phenyl)amino)pyrimidin-4-yl)amino)phenyl)acrylamide]	effect similar to Formula XX-A (ibrutinib)													
CC#CC(=O)N1CCC[C@H]1c1nc(-c2ccc(C(=O)Nc3ccccn3)cc2)c2c(N)nccn12 [Formula (XVIII), (S)-4-(8-amino-3-(1-(but-2-ynoyl)pyrrolidin-2-yl)imidazo[1,5-a]pyrazin-1-yl)-N-(pyridin-2-yl)benzamide]		does not	not observed	24	increase	significant reduction	significant reduction	significant reduction	impairs	significantly reduced	decreased	reduced	reduced	reduction
C=CC(=O)N1CCC[C@@H](n2nc(-c3ccc(Oc4ccccc4)cc3)c3c(N)ncnc32)C1 [Formula XX-A, 1-[(3R)-3-[4-amino-3-(4-phenoxyphenyl)-1H-pyrazolo[3,4-d]pyrimidin-1-yl]piperidin-1-yl]prop-2-en-1-one, reference compound]	able to limit this process	significantly inhibits												
